Reference: PubChem BioAssay AID844 (SRMLSC, 2007)
Calls of active or inactive are those of the source. No rule for the calls is given here.

Tested on: MRP1 cells, doxorubicin viability shift, 10 uM compound
Assay: doxorubicin EC50 increase in MRP-1 cells, dose response, cell-based, doxorubicin EC50 shift (AID 844)
Conditions: for EC50: measured here: doxorubicin EC50 with compound

SMILES | fold increase in Dox EC50 | EC50 [µM]
O=C(CSCc1ccc(Cl)cc1)N1CCN(Cc2ccc3c(c2)OCO3)CC1 | 0.77 (inactive) | 4.18
Cc1cc(Br)ccc1NC(=O)CNC(=O)CN1C(=O)NC2(CCCCCC2)C1=O | 1.34 (inactive) | 7.25
CCc1nnc(NC(=O)C2CCCN2S(=O)(=O)c2ccc(C)cc2)s1 (stereo not drawn) | 1.04 (inactive) | 5.6
CC1(C)O[C@@H]2C[C@H]3[C@@H]4C[C@H](F)C5=CC(=O)CC[C@]5(C)[C@H]4[C@@H](O)C[C@]3(C)[C@]2(C(=O)CO)O1 | 0.65 (inactive) | 3.52
O=C(CCNC(=O)Cn1ccc2ccccc2c1=O)NCCc1ccccc1Cl | 1.14 (inactive) | 6.15
CCOC(=O)c1c(-c2cccc([N+](=O)[O-])c2)csc1NC(=O)C1CCCCC1 | 0.34 (inactive) | 1.84
Cc1cccc(C)c1N=Cc1c(O)n(-c2nccs2)c(=O)c2ccccc12 | 0.6 (inactive) | 3.22
CCOC(=O)C1CCCN(Cc2ccc(OC)cc2OC)C1 (stereo not drawn) | 0.35 (inactive) | 1.91
COc1cccc(Nc2ncc(C(=O)O)c3ccccc23)c1 | 0.56 (inactive) | 3.01
COc1cccc(C2C(C(=O)Nc3nc4ccccc4s3)=C(C)NC3=C2C(=O)CC(C)(C)C3)c1OC (stereo not drawn) | 0.3 (inactive) | 1.6
Cc1ccc2nc3c(cc2c1)CC1(C(=O)N(C)C(=O)N(C)C1=O)C1CCCCN31 (stereo not drawn) | 0.59 (inactive) | 3.21
CCCOC(=S)NC(=O)c1sc2ccccc2c1Cl | 1.25 (inactive) | 6.75
O=[N+]([O-])c1ccc(N/N=C/c2ccccc2)c(F)c1 | 0.64 (inactive) | 3.44
O=C(NNC(=O)c1cccc(S(=O)(=O)N2CCN(c3ccccc3)CC2)c1)c1ccc(Cl)cc1 | 1.47 (inactive) | 7.95
Brc1ccc(OCc2nnc3n2CCC3)cc1 | 1.67 | 9.02
COc1ccccc1C1C(C(=O)c2sc(C)nc2C)=C(O)C(=O)N1CCN1CCOCC1 (stereo not drawn) | 0.71 (inactive) | 3.81
COc1ccc(N(C(=O)Cn2cnc3ccccc32)C(C(=O)NC2CCCCC2)c2ccccc2)cc1 (stereo not drawn) | 0.38 (inactive) | 2.07
CN(Cc1ccccc1)c1ncnc2c1cnn2-c1ccccc1 | 0.54 (inactive) | 2.94
CCC(Sc1nc(-c2ccccc2)c(C#N)c(=O)[nH]1)C(=O)Nc1cc(C)on1 (stereo not drawn) | 1.56 | 8.41
Cc1ccc(/C=C2\SC(=S)N(CCC(=O)NNC(=O)c3cccnc3)C2=O)cc1 | 0.91 (inactive) | 4.9
CCCC1S/C(=N/N=C/c2ccc(OC)cc2)N(Cc2ccccc2)C1=O (stereo not drawn) | 1 (inactive) | 5.39
N/C(=N\N=C\c1ccc2c(c1)OCO2)c1nonc1N | 0.88 (inactive) | 4.73
COc1ccc(CNc2nc3c(c(=O)n(Cc4ccc(Cl)cc4)c(=O)n3C)n2C)cc1 | 0.83 (inactive) | 4.48
O=C(COC(=O)c1c(Cl)cccc1Cl)Nc1cc(Cl)ccc1Oc1ccccc1 | 0.36 (inactive) | 1.97
O=c1nc2s/c(=C\c3ccc(-c4ccccc4[N+](=O)[O-])o3)c(=O)n2nc1-c1ccccc1 | 1.43 (inactive) | 7.73

SMILES | fold increase in Dox EC50 | EC50 [µM]
O=C1C(Cc2cccc([N+](=O)[O-])c2)SC(=Nc2ccccc2)N1c1ccccc1 (stereo not drawn) | 0.73 (inactive) | 3.94
N#C/C(=N/Nc1ccccc1F)C(=N)N1CCOCC1 | 0.99 (inactive) | 5.33
CCN(CC(=O)NC(C)C)C(=O)c1ccc(Cl)cc1 | 0.45 (inactive) | 2.41
COc1ccc(NC(=O)c2oc3ccccc3c2NC(=O)C(C)(C)C)cc1 | 0.63 (inactive) | 3.41
CC1CCC/C(=C(\C#N)c2nc(-c3cc4ccccc4oc3=O)cs2)C1 (stereo not drawn) | 0.55 (inactive) | 2.96
Cc1ccc(OCCN2CCN(C(=O)CCC(=O)Nc3nnc(C)s3)CC2)cc1 | 1.53 | 8.28
O=C(O)/C=C\C(=O)NC1CCCCC1 | 0.68 (inactive) | 3.67
CCOC(=O)c1sc(-c2ccc(F)cc2)cc1NC(=O)Nc1ccccc1OC | 0.83 (inactive) | 4.5
C/C(=N/NC(=O)CSc1ccccn1)c1ccc([N+](=O)[O-])cc1 | 0.77 (inactive) | 4.18
Brc1ccc(CSc2ncn[nH]2)cc1 | 1 (inactive) | 5.39
Cc1cc(C)c(N=Cc2c(O)n(-c3nccs3)c(=O)c3ccccc23)c(C)c1 | 0.29 (inactive) | 1.54
O=C(Nc1cccnc1)C1CC(c2ccc(Cl)c(Cl)c2)=NO1 (stereo not drawn) | 1.32 (inactive) | 7.13
COc1ccc(OCc2nnc(SCC(=O)N3c4ccccc4Sc4ccc(Cl)cc43)o2)cc1 | 1.1 (inactive) | 5.92
O=C1CC(N2CCC(c3nc4ccccc4o3)CC2)C(=O)N1c1cc(Cl)cc(Cl)c1 (stereo not drawn) | 1.36 (inactive) | 7.36
O=C(O)c1cccc(N2C(=O)C3CC=C(Cl)CC3C2=O)c1 (stereo not drawn) | 1.48 (inactive) | 7.97
CC(SC1=NCCS1)C(=O)Nc1nnc(-c2ccc(Br)cc2)s1 (stereo not drawn) | 0.97 (inactive) | 5.24
O=[N+]([O-])c1ccc(O)c(N=Cc2sc3ccccc3c2O)c1 | 0.08 (inactive) | 0.457
Cc1ccc2nc(Nc3nc(CSc4nc5ccccc5s4)cc(=O)[nH]3)nc(C)c2c1 | 1.08 (inactive) | 5.81
S=C(NCc1ccccn1)Nc1ccccc1Cl | 1.14 (inactive) | 6.15
COc1ccc(C2C(C(=O)OCC(=O)NC(C)(C)C)CCC(=O)N2c2ccc(C)cc2)cc1OC (stereo not drawn) | 0.81 (inactive) | 4.36
COc1ccccc1C1CC(c2ccc(Cl)cc2Cl)Nc2nc(N)nn21 (stereo not drawn) | 0.95 (inactive) | 5.11
Cc1noc(/C=C/N(C)C)c1S(=O)(=O)N1CCCC(C(=O)N2CCCCC2)C1 (stereo not drawn) | 0.74 (inactive) | 3.98
CC(C)CNC(=O)c1c(N)n(/N=C/c2ccccn2)c2nc3ccccc3nc12 | 0.94 (inactive) | 5.08
O=C(NNC1=C(C(=O)C(F)(F)F)CCC1)c1cccc(Cl)c1 | 1.03 (inactive) | 5.54
Cc1ccc(C2CC(C(F)(F)F)n3nc(C(=O)NCc4c(C)nn(C)c4C)c(Cl)c3N2)cc1 (stereo not drawn) | 1.13 (inactive) | 6.1

SMILES | fold increase in Dox EC50 | EC50 [µM]
CC1(C)O[C@@H]2C[C@H]3[C@@H]4CCC5=CC(=O)C=C[C@]5(C)[C@@]4(F)[C@@H](O)C[C@]3(C)[C@]2(C(=O)CO)O1 | 0.62 (inactive) | 3.33
CCc1ccc(/C(C)=N/Nc2cc(Cl)nc(C)n2)cc1 | 0.69 (inactive) | 3.75
COc1ccc(C2C(C(=O)Nc3cccc(C)n3)CCC(=O)N2c2ccc(OC)cc2)cc1 (stereo not drawn) | 0.64 (inactive) | 3.44
CCOc1ccc(C2CC(c3ccc(F)cc3)Nc3nc(N)nn32)cc1 (stereo not drawn) | 0.55 (inactive) | 2.95
COc1ccc(OC)c(-c2cc(C(=O)Nc3c(C)nn(Cc4ccccc4Cl)c3C)no2)c1 | 0.55 (inactive) | 2.99
N#Cc1nc(COc2ccc(Br)cc2)oc1NCCN1CCOCC1 | 0.83 (inactive) | 4.5
CC(=O)N1CCN=C1SCc1ccc(Cl)cc1 | 1.06 (inactive) | 5.75
O=C(NCC1(c2ccccc2)CCOCC1)c1ccc(Br)o1 | 1.3 (inactive) | 7.01
O=C(O)c1ccc(N/N=C/c2ccc(F)c(F)c2)cc1 | 1.31 (inactive) | 7.07
c1coc(C2Nc3cccc4cccc(c34)N2)c1 | 0.21 (inactive) | 1.13
CC12CCC(c3nnc(SCc4ccc(Cl)cc4)nc31)C2(C)C (stereo not drawn) | 1.32 (inactive) | 7.1
O=C(NN1C(=O)/C(=C\c2cccnc2)SC1=S)C(c1ccccc1)c1ccccc1 | 0.84 (inactive) | 4.56
O=C(Cc1ccccc1)Nc1ccccc1Oc1ccccc1 | 0.69 (inactive) | 3.71
Cc1nc2cc(-c3ccc(Cl)cc3)nn2c(C)c1CCC(=O)NC(C)c1ccc2c(c1)OCCO2 (stereo not drawn) | 0.52 (inactive) | 2.83
c1ccc(-c2ccc(-c3nc(-c4ccncc4)no3)cc2)cc1 | 0.41 (inactive) | 2.21
Cc1ccc(C(=O)NNC(=O)c2ccc(SCC3CCCO3)c([N+](=O)[O-])c2)cc1 (stereo not drawn) | 0.56 (inactive) | 3.01
CCOc1ccc(NC(=O)CN2C(=O)COc3ccc(Cl)cc32)cc1 | 1.33 (inactive) | 7.19
Cc1ccc(N2C(=O)NC(=O)/C(=C\c3ccsc3)C2=O)cc1C | 0.8 (inactive) | 4.33
Cc1nn(Cc2c(F)c(F)c(F)c(F)c2F)c(C)c1NC(=O)c1ccc(COc2ccc(F)cc2)o1 | 1 (inactive) | 5.42
N#CCn1nnc(-c2ccc3c(c2)OCO3)n1 | 1.01 (inactive) | 5.43
Cc1noc(/C=C/N(C)C)c1S(=O)(=O)N1CCCC(C(=O)NC2CCCCC2)C1 (stereo not drawn) | 0.97 (inactive) | 5.23
N#Cc1nc(COc2ccccc2)oc1N1CCCC1 | 0.77 (inactive) | 4.13
C=CCN(C(=O)Nc1ccc(Cl)cc1)C1CC(=O)N(c2ccc(OC)cc2)C1=O (stereo not drawn) | 0.9 (inactive) | 4.85
CC(C)(C)NC(NC(=O)Cc1ccccc1)C(Cl)(Cl)Cl (stereo not drawn) | 1.07 (inactive) | 5.77
